Experimental data: patent US20080255155A1, “KINASE INHIBITORS AND USES THEREOF” (priority 2006, published 2008)

Tests used:
A549 = A549 wound healing inhibition; conditions: Homo sapiens; A549 cells; read-out: Potency in cell-based assays A549 wound healing inhibition
DU145 = DU145 scattering inhibition; conditions: Homo sapiens, DU-145; DU145 cells; read-out: Potency in cell-based assays DU145 scattering inhibition
[1] = target: T1, recombinant human c-Met/HGF receptor (Homo sapiens, UniProt P08581); assay: In vitro receptor tyrosine kinase assay, c-Met (DELFIA); assay type: biochemical; conditions: ATP 10 uM, enzyme 25 nM; read-out: Potency in enzyme assays Cmet
T1 construct: His tag; made in house; host or cells: Hi-5 cells (Trichoplusia ni), recombinant baculovirus
Description: (§1) These tests measure the ability of compounds to inhibit the enzymatic activity of recombinant human c-Met/HGF receptor and VEGF receptor enzymatic activity.
A 1.3-kb cDNA corresponding to the intracellular domain of c-Met or c-Met IC (Genbank accession number NP000236-1 amino acid […]) is cloned into the BamHI/XhoI sites of the pBlueBacHis2A vector (Invitrogen) for the production of a histidine-tagged version of that enzyme. This construct is used to generate recombinant baculovirus using the Bac-N-Blue™ system according to the manufacturer's instructions (Invitrogen).
(§2) The c-Met IC protein is expressed in Hi-5 cells (Trichoplusia Ni) upon infection with recombinant baculovirus construct. Briefly, Hi-5 cells grown in suspension and maintained in serum-free medium (Sf900 II supplemented with gentamycin) at a cell density of about 2×10^6 cells/ml are infected with the above-mentioned viruses at a multiplicity of infection (MOI) of 0.2 during 72 hours at 27° C. with agitation at 120 rpm on a rotary shaker. Infected cells are harvested by centrifugation at 398 g for 15 min. Cell pellets are frozen at −80° C. until purification is performed.
All steps described in cell extraction and purification are performed at 4° C. Frozen Hi-5 cell pellets infected with the C-Met IC recombinant baculovirus are thawed and gently resuspended in Buffer A (20 mM Tris pH 8.0, 10% glycerol, 1 μg/ml pepstatin, 2 μg/ml Aprotinin and leupeptin, 50 μg/ml PMSF, 50 μg/ml TLCK and 10 μM E64, 0.5 mM DTT and 1 mM Levamisole) using 3 ml of buffer per gram of cells. The suspension is Dounce homogenized after which it is centrifuged at 22500 g, 30 min., 4° C. The supernatant (cell extract) is used as starting material for purification of c-Met IC.
The supernatant is loaded onto a QsepharoseFF column (Amersham Biosciences) equilibrated with Buffer B (20 mM Tris pH 8.0, 10% glycerol) supplemented with 0.05M NaCl. Following a ten column volume (CV) wash with equilibration buffer, bound proteins are eluted with a 5 CV salt linear gradient spanning from 0.05 to 1M NaCl in Buffer B. Typically, the conductivity of selected fractions rank between 6.5 and 37 mS/cm. This Qsepharose eluate has an estimated NaCl concentration of 0.33M and is supplemented with a 5M NaCl solution in order to increase NaCl concentration at 0.5M and also with a 5M Imidazole (pH 8.0) solution to achieve a final imidazole concentration of 15 mM. This material is loaded onto a HisTrap affinity column (GE Healthcare) equilibrated with Buffer C (50 mM NaPO4 pH 8.0, 0.5M NaCl, 10% glycerol) supplemented with 15 mM imidazole. After a 10 CV wash with equilibration buffer and an 8 CV wash with buffer C+40 mM imidazole, bound proteins are eluted with an 8 CV linear gradient (15 to 500 mM) of imidazole in buffer C. C-Met IC enriched fractions from this chromatography step are pooled based on SDS-PAGE analysis. This pool of enzyme undergoes buffer exchange using PD-10 column (GE Healthcare) against buffer D (25 mM HEPES pH 7.5, 0.1M NaCl, 10% glycerol and 2 mM β-mercaptoethanol). Final C-Met IC protein preparations concentrations are about 0.5 mg/ml with purity approximating 80%. Purified c-Met IC protein stocks are supplemented with BSA at 1 mg/ml, aliquoted and frozen at −80° C. prior to use in enzymatic assay.
Inhibition of c-Met/HGF receptor and VEGFR/KDR is measured in a DELFIA™ assay (Perkin Elmer). The substrate poly(Glu4,Tyr) is immobilized onto black high-binding polystyrene 96-well plates. The coated plates are washed and stored at 4° C. During the assay, enzymes are pre-incubated with inhibitor and Mg-ATP on ice in polypropylene 96-well plates for 4 minutes, and then transferred to the coated plates. The subsequent kinase reaction takes place at 30° C. for 10-30 minutes. ATP concentrations in the assay are 10 uM for C-Met (5× the Km) and 0.6 uM for VEGFR/KDR (2× the Km). Enzyme concentration is 25 nM (C-Met) or 5 nM (VEGFR/KDR). […]

VEGF receptor KDR = target: T2, VEGF receptor KDR (Homo sapiens, UniProt P35968); assay: In vitro receptor tyrosine kinase assay, VEGF receptor KDR (DELFIA); assay type: biochemical; conditions: ATP 0.6 uM, enzyme 5 nM; read-out: Potency in enzyme assays VEGF
T2 construct: made in house; host or cells: Sf9 cells (Spodoptera frugiperda), recombinant baculovirus
Description: as §1
In the case of VEGF receptor KDR a 1.6-kb cDNA corresponding to the catalytic domain of VEGFR2 or KDR (Genbank accession number AF035121 amino acid 806 to 1356) is cloned into the Pst I site of the pDEST20 Gateway vector (Invitrogen) for the production of a GST-tagged version of that enzyme. This construct is used to generate recombinant baculovirus using the Bac-to-Bac system according to the manufacturer's instructions (Invitrogen).
as §2, with “GST-VEGFR2806-1356” for “c-Met IC”, “Sf9” for “Hi-5”, “(Spodoptera frugiperda)” for “(Trichoplusia Ni)”, “0.1” for “0.2”
All steps described in cell extraction and purification are performed at 4° C. Frozen Sf9 cell pellets infected with the GST-VEGFR2806-1356 recombinant baculovirus re thawed and gently resuspended in Buffer A (PBS pH 7.3 supplemented with 1 μg/ml pepstatin, 2 μg/ml Aprotinin and leupeptin, 50 μg/ml PMSF, 50 μg/ml TLCK and 10 μM E64 and 0.5 mM DTT) using 3 ml of buffer per gram of cells. Suspension is Dounce homogenized and 1% Triton X-100 is added to the homogenate after which it is centrifuged at 22500 g, 30 min., 4° C. The supernatant (cell extract) is used as starting material for purification of GST-VEGFR2806-1356.
The supernatant is loaded onto a GST-agarose column (Sigma) equilibrated with PBS pH 7.3. Following a four column volume (CV) wash with PBS pH 7.3+1% Triton X-100 and 4 CV wash with buffer B (50 mM Tris pH 8.0, 20% glycerol and 100 mM NaCl), bound proteins are step eluted with 5 CV of buffer B supplemented with 5 mM DTT and 15 mM glutathion. GST-VEGFR2806-1356 enriched fractions from this chromatography step are pooled based on U.V. trace i.e. fractions with high O.D^-280- Final GST-VEGFR2806-1356 protein preparations concentrations are about 0.7 mg/ml with purity approximating 70%. Purified GST-VEGFR2806-1356 protein stocks are aliquoted and frozen at −80° C. prior to use in enzymatic assay.
Inhibition of c-Met/HGF receptor and VEGFR/KDR is measured in a DELFIA™ assay (Perkin Elmer). The substrate poly(Glu4,Tyr) is immobilized onto black high-binding polystyrene 96-well plates. The coated plates are washed and stored at 4° C. During the assay, enzymes are pre-incubated with inhibitor and Mg-ATP on ice in polypropylene 96-well plates for 4 minutes, and then transferred to the coated plates. The subsequent kinase reaction takes place at 30° C. for 10-30 minutes. ATP concentrations in the assay are 10 uM for C-Met (5× the Km) and 0.6 uM for VEGFR/KDR (2× the Km). Enzyme concentration is 25 nM (C-Met) or 5 nM (VEGFR/KDR). After incubation, the kinase reactions are quenched with EDTA and the plates are washed. Phosphorylated product is detected by incubation with Europium-labeled anti-phosphotyrosine MoAb. After washing the plates, bound MoAb is detected by time-resolved fluorescence in a Gemini SpectraMax reader (Molecular Devices). Compounds are evaluated over a range of concentrations and IC50's (concentration of compounds giving 50% inhibition of enzymatic activity) are determined.

T2 sequence (P35968 806-1356): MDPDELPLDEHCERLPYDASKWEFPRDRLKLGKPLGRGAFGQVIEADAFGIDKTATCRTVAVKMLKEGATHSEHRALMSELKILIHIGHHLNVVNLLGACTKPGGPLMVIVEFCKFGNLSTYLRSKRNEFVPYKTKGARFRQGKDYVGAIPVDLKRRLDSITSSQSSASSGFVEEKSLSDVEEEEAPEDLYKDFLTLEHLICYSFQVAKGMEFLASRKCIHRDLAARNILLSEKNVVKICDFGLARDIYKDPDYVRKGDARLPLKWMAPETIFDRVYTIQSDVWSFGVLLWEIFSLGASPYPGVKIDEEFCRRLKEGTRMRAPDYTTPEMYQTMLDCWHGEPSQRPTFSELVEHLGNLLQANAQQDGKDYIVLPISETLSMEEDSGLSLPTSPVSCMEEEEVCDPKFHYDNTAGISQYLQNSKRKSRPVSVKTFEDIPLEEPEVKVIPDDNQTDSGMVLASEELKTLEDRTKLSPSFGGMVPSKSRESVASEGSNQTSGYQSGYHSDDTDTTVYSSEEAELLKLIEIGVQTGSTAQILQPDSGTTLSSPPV
T1 sequence (P08581 1078-1337): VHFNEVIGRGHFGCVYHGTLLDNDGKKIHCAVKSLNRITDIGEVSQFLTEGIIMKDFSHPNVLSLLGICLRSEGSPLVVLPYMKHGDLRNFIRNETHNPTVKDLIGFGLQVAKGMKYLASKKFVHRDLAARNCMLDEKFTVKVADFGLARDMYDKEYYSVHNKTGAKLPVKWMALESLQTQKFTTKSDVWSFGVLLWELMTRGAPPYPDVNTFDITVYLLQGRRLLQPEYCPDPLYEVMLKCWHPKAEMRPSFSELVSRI

Row | IC50 (A549) [nM] | IC50 (DU145) [nM] | IC50 [1] [nM] | IC50 (VEGF receptor KDR) [nM] | SMILES
1 | 1000 to 5000 | 1000 to 5000 | 500 to 1000 | ≥ 1000 | CNC(=O)c1cc(Oc2ccc(NC(=O)N3CCN(c4ccc(F)cc4)C3=O)cc2F)ccn1 [Compound 87b, 4-(2-fluoro-4-(3-(4-fluorophenyl)-2-oxoimidazolidine-1-carboxamido)phenoxy)-N-methylpicolinamide]
2 | 1000 to 5000 | ≥ 1000 | 500 to 1000 | ≥ 1000 | CN(C)CCCNC(=O)Nc1cc(Oc2ccc(NC(=O)N3CCN(c4ccccc4)C3=O)cc2F)ccn1 [Compound 18c, N-(4-(2-(3-(3-(dimethylamino)propyl)ureido)pyridin-4-yloxy)-3-fluorophenyl)-2-oxo-3-phenylimidazolidine-1-carboxamide]
3 | 1000 to 5000 | 5000 to 10000 | ≥ 1000 | ≥ 1000 | O=C(CC(Nc1ccc(F)cc1)C(F)(F)F)Nc1ccc(Oc2cc(NC(=O)N3CCCC3)ncn2)c(F)c1 (stereo not drawn) [Compound 9a, N-(6-(2-Fluoro-4-(4,4,4-trifluoro-3-(4-fluorophenylamino)butanamido)phenoxy)pyrimidin-4-yl)pyrrolidine-1-carboxamide]
4 | ≥ 1000 | ≥ 1000 | < 250 | < 250 | O=C(Nc1cc(Oc2ccc(NC(=O)N3CCN(c4ccc(F)cc4)C3=O)cc2F)ccn1)N1CCCC1 [Compound 18b, N-(3-fluoro-4-(2-(pyrrolidine-1-carboxamido)pyridin-4-yloxy)phenyl)-3-(4-fluorophenyl)-2-oxoimidazolidine-1-carboxamide]
5 | 1000 to 5000 | 5000 to 10000 | < 250 | < 250 | O=C(Nc1cc(Oc2ccc(NC(=O)N3CCN(c4ccccc4)C3=O)cc2F)ncn1)N1CCCC1 [Compound 9c, N-(3-Fluoro-4-(6-(pyrrolidine-1-carboxamido)pyrimidin-4-yloxy)phenyl)-2-oxo-3-phenylimidazolidine-1-carboxamide]
6 | 5000 to 10000 | 5000 to 10000 | ≥ 1000 | ≥ 1000 | O=C(Nc1ccc(Oc2cc(NC(=O)N3CCCC3)ncn2)c(F)c1)C1CCN(c2ccccc2)C1=O (stereo not drawn) [Compound 9b, N-(6-(2-Fluoro-4-(2-oxo-1-phenylpyrrolidine-3-carboxamido)phenoxy)pyrimidin-4-yl)pyrrolidine-1-carboxamide]
7 | – | – | ≥ 1000 | > 1000 | O=C(NCCN1CCOCC1)c1cc(Oc2ccc(NC(=O)N3CCN(c4ccc(F)cc4)C3=O)cc2F)ccn1 [Compound 87d, 4-(2-fluoro-4-(3-(4-fluorophenyl)-2-oxoimidazolidine-1-carboxamido)phenoxy)-N-(2-morpholinoethyl)picolinamide]
8 | 1000 to 5000 | 1000 to 5000 | < 250 | ≥ 1000 | CN(C)CCCOC(=O)Nc1cc(Oc2ccc(NC(=O)N3CCN(c4ccccc4)C3=O)cc2F)ccn1 [Compound 18i, 3-(dimethylamino)propyl4-(2-fluoro-4-(2-oxo-3-phenylimidazolidine-1-carboxamido)phenoxy),pyridin-2-ylcarbamate]
9 | ≥ 1000 | ≥ 1000 | < 250 | < 250 | CN(C)[C@H]1CCN(C(=O)Nc2cc(Oc3ccc(NC(=O)N4CCN(c5ccc(F)cc5)C4=O)cc3F)ccn2)C1 [Compound 18h, (S)-N-(4-(2-(3-(dimethylamino)pyrrolidine-1-carboxamido)pyridin-4-yloxy)-3-fluorophenyl)-3-(4-fluorophenyl)-2-oxoimidazolidine-1-carboxamide]
10 | 1000 to 5000 | ≥ 1000 | < 250 | < 250 | CN(C)[C@H]1CCN(C(=O)Nc2cc(Oc3ccc(NC(=O)N4CCN(c5ccccc5)C4=O)cc3F)ccn2)C1 [Compound 18f, (S)-N-(4-(2-(3-(dimethylamino)pyrrolidine-1-carboxamido)pyridin-4-yloxy)-3-fluorophenyl)-2-oxo-3-phenylimidazolidine-1-carboxamide]
11 | 1000 to 5000 | 5000 to 10000 | 250 to 500 | ≥ 1000 | CC(=O)Nc1ccc(Oc2cccc(NC(=O)N3CCN(c4ccccc4)C3=O)c2)cn1 [Compound 31a, N-(3-(6-acetamidopyridin-3-yloxy)phenyl)-2-oxo-3-phenylimidazolidine-1′-carboxamide]
